Measured values from patent US20110124608A1, “USE OF 25-HYDROXY VITAMIN D3 TO INCREASE MUSCLE MASS IN MAMMALS” (priority 2007, published 2011).

Experiments:
Format in all cases: in vivo, pig
[1] = system: pigs; test: Swine growth performance, Study B / Example 2: pigs fed 25-OH D3, farrowed to sows fed without 25-OH D3
Text: (§1) Study A. Two treatment groups were used in all studies. The control group contained first-to-fifth parity pigs (sows and progenies) fed rations without 25-OH D3 supplementation. The experimental group was made up of first-to-fifth parity pigs fed rations supplemented with 50 mcg 25-OH D3/kg diet) and farrowed to sows fed rations supplemented with 25-OH D3 since 6 months old. Study A only covered the pre-starter to finisher stage (41-150 days old) for the first to third parities pigs, while it covered the booster to finisher stage (7-150 days old) for the fourth and fifth parity pigs. Study B. Two treatment groups were also used in this study. Pigs were randomly selected from mixed-parity sows fed rations containing no supplemental 25-OH on the same farm. The control group was fed rations without 25-OH D3, whereas the experimental group was fed rations supplemented with 25-OH D3 (50 mcg 25-OH D3/kg diet). Study B covered the pre-starter to finisher stage (41-150 days old). Number of pigs and replicates: There were 8-11 replicates per treatment and 4 pigs per replicate. Randomization and Allotment of pigs: Pigs were grouped according to size and sex and randomly allocated to each treatment. The number of male-replicates for the two treatments were equalized. Rations: The rations involved in all studies were gestating and lactation rations for the sows. Booster, pre-starter, starter, grower and finisher rations were given to the progenies. Feeding: The experimental pigs were fed ad libitum with dry feeds. Booster pigs (sucklings) were fed starting when they were 7 days old. Feeds were placed in a linear trough designed for piglets. For a few days, only a small amount of feed was given to the pigs, but when they were eating, the required amount was always in the feeder. The amounts of feeds were properly weighed and recorded. Pre-starter pigs were fed for 30 days using linear feeders while they were confined in slatted and elevated nursery pens. The grower-finisher pigs were fed using concrete linear feeders for 80 days while they were confined in pens with cement flooring. The following rations were fed to pigs corresponding to their age.
(§2) Other management Practices: All experimental animals were subject to the standard operating procedure in the farm where these studies were conducted. Data Collection The following data were collected: 1. Weights of piglets at 7 days old 2. Weight of piglets at 28 days old 3. Weight of pigs at 41, 70, 100, 130, and 150 days old 4. Feed consumption during the following periods:
In this study, the pigs that were used were weaned from sows that were not fed 25-OH D3.

[2] = system: pigs; test: Swine growth performance, Study A: pigs fed 25-OH D3 and farrowed to sows fed 25-OH D3
Text: as §1, §2
Across parities, pigs weaned from 25-OH D3—fed sows were fed 50 μg 25-OH D3/kg diet and those weaned from control sows were fed the control diet (containing no 25-OH D3). Consistently across the three parities, pigs fed 25-OH D3 gained weight faster (a delta average of 3.9 kg) an converted feed to gain (a delta average of 7 points) more efficient than those fed the control diet.

[3] = system: pigs; test: Farm records: pigs weaned from 25-OH D3-fed sows but not fed 25-OH D3; conditions: pigs weaned from 25-OH D3-fed sows but not fed 25-OH D3 (prenatal exposure only)
[4] = mixed-parity pigs, 41-to-150-day old, sows fed without 25-OH D3, 50 mcg 25-OH D3/kg diet
[5] = mixed-parity pigs, 41-to-150-day old, sows fed without 25-OH D3, difference to control
[6] = across parities, prestarting-to-finishing pigs from 25-OH D3-fed sows, 50 μg 25-OH D3/kg diet
[7] = fifth parity pigs, 41-150-day old, sows fed 25-OH D3, 50 mcg 25-OH D3/kg diet
[8] = fifth parity pigs, 41-150-day old, sows fed 25-OH D3, difference to control
[9] = first parity pigs, 41-to-150-day-old, sows fed 25-OH D3, 50 mcg 25-OH D3/kg diet
[10] = first parity pigs, 41-to-150-day-old, sows fed 25-OH D3, difference to control
[11] = fourth parity pigs, 41-150-old, sows fed 25-OH D3, 50 mcg 25-OH D3/kg diet
[12] = fourth parity pigs, 41-150-old, sows fed 25-OH D3, difference to control
[13] = second parity pigs, 41-to-150-day-old, sows fed 25-OH D3, 50 mcg 25-OH D3/kg diet
[14] = second parity pigs, 41-to-150-day-old, sows fed 25-OH D3, difference to control
[15] = third parity pigs, 41-150-day-old, sows fed 25-OH D3, 50 mcg 25-OH D3/kg diet
[16] = third parity pigs, 41-150-day-old, sows fed 25-OH D3, difference to control

C=C1CC[C@H](O)C/C1=C/C=C1\CCC[C@]2(C)[C@@H]([C@H](C)CCCC(C)(C)O)CC[C@@H]12 [25-OH D3, 25-hydroxy vitamin D3]
Daily wt gain [1, 4]: 0.74 kg
Feed: Gain [1, 4]: 2.34
Final body wt [1, 4]: 89.59 kg
Initial Body wt [1, 4]: 8.44 kg
Total feed intake [1, 4]: 190.05 kg
Total wt gain [1, 4]: 81.15 kg
Daily wt gain, 25-OH D3 v. control (δ) [1, 5]: 0.01 kg
Feed: Gain, 25-OH D3 v. control (δ) [1, 5]: −0.06
Final body wt, 25-OH D3 v. control (δ) [1, 5]: 0.98 kg
Initial Body wt, 25-OH D3 v. control (δ) [1, 5]: 0.11 kg
Total feed intake, 25-OH D3 v. control (δ) [1, 5]: -0.89 kg
Total wt gain, 25-OH D3 v. control (δ) [1, 5]: 0.88 kg
conversion of feed to weight gain compared with pigs fed without 25-OH D3 ([1]; pigs weaned from sows not fed 25-OH D3): more efficiently
feed to gain conversion, delta average v. control diet [2, 6]: 7 points
weight gain, delta average v. control diet [2, 6]: 3.9 kg
Daily wt gain [2, 7]: 0.76 kg
Feed: Gain [2, 7]: 2.22
Final body wt [2, 7]: 91.94 kg
Initial Body wt [2, 7]: 8.66 kg
Total feed intake [2, 7]: 184.63 kg
Total wt gain [2, 7]: 83.27 kg
Daily wt gain, 25-OH D3 v. control (δ) [2, 8]: 0.03 kg
Feed: Gain, 25-OH D3 v. control (δ) [2, 8]: 0.00
Final body wt, 25-OH D3 v. control (δ) [2, 8]: 2.51 kg
Initial Body wt, 25-OH D3 v. control (δ) [2, 8]: -0.07 kg
Total feed intake, 25-OH D3 v. control (δ) [2, 8]: 5.04 kg
Total wt gain, 25-OH D3 v. control (δ) [2, 8]: 2.57 kg
Daily wt gain [2, 9]: 0.72 kg
Feed: Gain [2, 9]: 2.32
Final body wt [2, 9]: 87.78 kg
Initial Body wt [2, 9]: 8.24 kg
Total feed intake [2, 9]: 184.60 kg
Total wt gain [2, 9]: 79.55 kg
Daily wt gain, 25-OH D3 v. control (δ) [2, 10]: 0.04 kg
Feed: Gain, 25-OH D3 v. control (δ) [2, 10]: −0.15
Final body wt, 25-OH D3 v. control (δ) [2, 10]: 5.72 kg
Initial Body wt, 25-OH D3 v. control (δ) [2, 10]: 0.64 kg
Total feed intake, 25-OH D3 v. control (δ) [2, 10]: 0.86 kg
Total wt gain, 25-OH D3 v. control (δ) [2, 10]: 5.08 kg
Daily wt gain [2, 11]: 0.74 kg
Feed: Gain [2, 11]: 2.07
Final body wt [2, 11]: 89.57 kg
Initial Body wt [2, 11]: 8.43 kg
Total feed intake [2, 11]: 166.93 kg
Total weight gain [2, 11]: 81.15 kg
Daily wt gain, 25-OH D3 v. control (δ) [2, 12]: 0.01 kg
Feed: Gain, 25-OH D3 v. control (δ) [2, 12]: −0.05
Final body wt, 25-OH D3 v. control (δ) [2, 12]: 1.21 kg
Initial Body wt, 25-OH D3 v. control (δ) [2, 12]: 0.15 kg
Total feed intake, 25-OH D3 v. control (δ) [2, 12]: -1.86 kg
Total weight gain, 25-OH D3 v. control (δ) [2, 12]: 1.06 kg
Daily wt gain [2, 13]: 0.78 kg
Feed: Gain [2, 13]: 2.28
Final body wt [2, 13]: 95.78 kg
Initial Body wt [2, 13]: 10.56 kg
Total feed intake [2, 13]: 193.74 kg
Total wt gain [2, 13]: 85.22 kg
Daily wt gain, 25-OH D3 v. control (δ) [2, 14]: 0.06 kg
Feed: Gain, 25-OH D3 v. control (δ) [2, 14]: −0.04
Final body wt, 25-OH D3 v. control (δ) [2, 14]: 7.34 kg
Initial Body wt, 25-OH D3 v. control (δ) [2, 14]: 1.67 kg
Total feed intake, 25-OH D3 v. control (δ) [2, 14]: 9.25 kg
Total wt gain, 25-OH D3 v. control (δ) [2, 14]: 5.59 kg
Daily weight gain [2, 15]: 0.76 kg
Feed: Gain [2, 15]: 2.16
Final body wt [2, 15]: 92.39 kg
Initial Body wt [2, 15]: 8.88 kg
Total feed intake [2, 15]: 179.35 kg
Total wt gain [2, 15]: 83.51 kg
Daily weight gain, 25-OH D3 v. control (δ) [2, 16]: 0.05 kg
Feed: Gain, 25-OH D3 v. control (δ) [2, 16]: −0.13
Final body wt, 25-OH D3 v. control (δ) [2, 16]: 5.88 kg
Initial Body wt, 25-OH D3 v. control (δ) [2, 16]: 0.75 kg
Total feed intake, 25-OH D3 v. control (δ) [2, 16]: 0.52 kg
Total wt gain, 25-OH D3 v. control (δ) [2, 16]: 5.12 kg
weight gain compared with pigs fed 25-OH D3 (Table 1) [3]: gain weight slower
body weight average ([3]; farm records, n=23 pigs): 80.90 kg
